System: apoptotic keratinocytes
Test: Sunburn (apoptotic) cells in mouse skin after UV-irradiation
Type: in vivo, Skh:hr1 hairless mice
Conditions: topical 20, 100 or 200 ug in 100 uL immediately after UVR; FIG. 11
Experimental: UV-induced DNA damage in the form of elevated CPDs can induce mutations in epidermal cells leading to the development of cancer cells. Reduction of CPDs through application of DNA repair enzymes prevents the risk of UV-induced skin cancer and reduce the level of apoptotic cells following UV-induced damage. The number of apoptotic skin cells following UV-irradiation was assessed in accordance with the following protocol.
Female Skh:hr1 hairless mice were prepared, irradiated and biopsied according to the methods of Example 4. Prior to biopsy, and immediately after irradiation, mice were treated with either a base lotion vehicle (negative control), 11.4 pmol/cm2 of Calcitriol in vehicle (positive control) the polypeptide IK34720 (SEQ ID NO: 3) in water, at 20 ug, 100 ug or 200 ug in a total volume of 100 uL.
Biopsies were taken from UV-irradiated dorsal skin 3 hrs post-UVR and fixed in Histochoice fixative (Amresco, Solon OH) for 6 h. Skin samples were paraffin-embedded and 5 micrometre sections were cut for all analyses. Sections (24 h after UV) were subjected to routine hematoxylin and eosin staining for visualization of sunburn cells. The stained sections were examined under a Zeiss-Axioplan light microscope at 40× magnification, and the number of sunburn cells per linear millimetre of skin section recorded.

RSKAKNPLYRRRRRRRRR [IK34720, 18-residue polypeptide: … with a C-terminal polyarginine region of 8 arginines]
number of apoptotic keratinocytes (sunburn cells): reduced the number of apoptotic keratinocytes

From patent publication US20220409510A1, “Polypeptides And Methods For Improving Skin Conditions” (Interk Peptide Therapeutics Limited, priority 2018, published 2022)
